Results published in patent US20030086872A1, “SUT-2 and SUT-3 genes, proteins and assays for inhibitors of lymphocyte adhesion” (priority 2001, published 2003).
“Also recorded” adds a separate entry of the source.

How the values were obtained:
SUT-3 = biological target: T1, SUT-3 (Homo sapiens, UniProt Q86WA9); assay: Sulfate uptake by Sf9 insect cells infected with baculovirus expressing SUT-3; type: cell-based; settings: 1 mM DIDS; uptake of 500 μM Na2SO4; Sf9 cells infected at MOI of 5
T1 construct: The full length SLC26A11 ORF was PCR amplified from IMAGE clone; expressed in transfected cells; host or cells: Sf9 insect cells infected with recombinant baculovirus (pVL1393-SUT-3, polyhedrin promoter)
T1 sequence (Q86WA9 1-606): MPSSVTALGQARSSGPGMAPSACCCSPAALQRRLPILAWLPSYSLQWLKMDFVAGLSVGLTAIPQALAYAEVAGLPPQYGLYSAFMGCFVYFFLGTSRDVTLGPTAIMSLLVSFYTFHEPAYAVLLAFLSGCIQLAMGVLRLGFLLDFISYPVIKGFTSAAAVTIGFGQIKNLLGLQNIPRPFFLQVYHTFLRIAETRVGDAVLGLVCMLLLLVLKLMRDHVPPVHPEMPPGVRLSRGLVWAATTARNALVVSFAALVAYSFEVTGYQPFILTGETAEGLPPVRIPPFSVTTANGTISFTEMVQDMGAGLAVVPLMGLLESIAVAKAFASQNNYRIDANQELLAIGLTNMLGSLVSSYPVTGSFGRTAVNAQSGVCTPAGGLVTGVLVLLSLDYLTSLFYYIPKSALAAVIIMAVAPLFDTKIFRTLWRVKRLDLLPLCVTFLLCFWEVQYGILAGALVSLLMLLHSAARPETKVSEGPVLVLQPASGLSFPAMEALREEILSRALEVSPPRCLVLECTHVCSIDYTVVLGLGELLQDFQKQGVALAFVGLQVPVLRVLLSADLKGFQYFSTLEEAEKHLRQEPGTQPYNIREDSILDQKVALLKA
Method: The full length SLC26A11 ORF was PCR amplified from IMAGE clone N^o 4793646, with 10 pmol of primers ATG-SUT-3 (5′-[…]) (SEQ ID NO: 21) and STOP-SUT-3 (5′-[…]-3′)(SEQ ID NO: 22), using 3 units of Pfu (Promega) in its reaction buffer with 400 μM dNTP. PCR cycles were 30×(94° C., 1′, 60° C., 1′, 72° C., 4′). The PCR product was then phosphorylated at its 5′ extremities using 2 units of T4 Polynucleotide Kinase (PROMEGA). 2 μg of pVL1393 vector (BD Biosciences) were digested with 10 units of EcoRI and NotI endonucleases, extremities were blunt-ended with 10 units of T4 DNA polymerase (PROMEGA) and 5′ extremities were dephosphated with 1 unit of Calf Intestine Phosphatase (Boehringer). 100 ng of purified insert and vector were then ligated together using 1 unit of T4 DNA Ligase (Biolabs). All enzymes were used according to supplier's instructions. After restriction analysis, DNA sequencing was performed using the Big Dye Sequencing Kit (Perkin Elmer) according to manufacturer's protocol. […]
For all experiments, 80 cm^2 flasks containing 60% confluent Sf9 cells were infected at a MOI of 5 and incubated for 3 days at 27° C. for protein expression. […] Protein concentration was evaluated using the BIO-RAD protein Assay Kit according to the manufacturer's protocol and cell-associated radioactivity was determined in a Tri-Carb 2100 liquid scintillation counter (Packard). […]

SUT-1 = biological target: T2, SUT-1 (Homo sapiens, UniProt Q9UKG4); settings: cited from earlier work
T2 sequence (Q9UKG4 1-626): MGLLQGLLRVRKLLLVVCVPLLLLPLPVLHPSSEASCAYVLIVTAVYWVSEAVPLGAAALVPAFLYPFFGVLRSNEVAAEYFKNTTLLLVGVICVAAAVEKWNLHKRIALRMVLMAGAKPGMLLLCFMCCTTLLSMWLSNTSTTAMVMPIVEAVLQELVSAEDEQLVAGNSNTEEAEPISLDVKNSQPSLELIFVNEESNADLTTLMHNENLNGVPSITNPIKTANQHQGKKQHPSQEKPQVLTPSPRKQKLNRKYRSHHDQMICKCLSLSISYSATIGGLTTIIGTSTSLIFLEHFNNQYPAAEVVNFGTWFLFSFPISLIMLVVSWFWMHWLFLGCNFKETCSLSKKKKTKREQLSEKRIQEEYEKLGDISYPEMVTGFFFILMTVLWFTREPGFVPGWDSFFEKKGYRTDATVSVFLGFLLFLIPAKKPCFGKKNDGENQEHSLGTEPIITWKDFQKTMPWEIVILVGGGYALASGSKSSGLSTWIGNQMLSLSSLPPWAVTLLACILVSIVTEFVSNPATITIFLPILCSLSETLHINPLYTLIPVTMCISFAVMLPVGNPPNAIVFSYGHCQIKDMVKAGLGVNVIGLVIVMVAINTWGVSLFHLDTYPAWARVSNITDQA

NaSi-1 = biological target: T3, NaSi-1 (Rattus norvegicus, UniProt Q07782); settings: rat kidney and small intestine; cited from earlier work
T3 sequence (Q07782 1-595): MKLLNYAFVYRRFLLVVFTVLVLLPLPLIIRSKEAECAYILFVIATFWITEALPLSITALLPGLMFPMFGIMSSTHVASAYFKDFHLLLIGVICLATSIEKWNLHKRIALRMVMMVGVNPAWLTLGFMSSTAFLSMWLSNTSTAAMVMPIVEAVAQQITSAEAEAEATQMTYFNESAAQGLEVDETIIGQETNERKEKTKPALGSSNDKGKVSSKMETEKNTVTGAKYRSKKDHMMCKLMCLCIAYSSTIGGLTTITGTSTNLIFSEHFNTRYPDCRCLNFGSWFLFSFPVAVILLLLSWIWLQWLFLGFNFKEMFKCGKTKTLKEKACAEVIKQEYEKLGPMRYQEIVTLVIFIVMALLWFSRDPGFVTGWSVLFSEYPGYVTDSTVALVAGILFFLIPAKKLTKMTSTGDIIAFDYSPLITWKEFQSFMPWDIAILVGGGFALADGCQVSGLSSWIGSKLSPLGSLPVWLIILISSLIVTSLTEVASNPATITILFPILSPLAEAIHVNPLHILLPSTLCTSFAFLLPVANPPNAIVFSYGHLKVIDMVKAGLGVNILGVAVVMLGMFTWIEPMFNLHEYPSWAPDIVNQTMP

DTD = biological target: T4, DTD (Homo sapiens, UniProt P50443); settings: cited from earlier work
T4 sequence (P50443 1-739): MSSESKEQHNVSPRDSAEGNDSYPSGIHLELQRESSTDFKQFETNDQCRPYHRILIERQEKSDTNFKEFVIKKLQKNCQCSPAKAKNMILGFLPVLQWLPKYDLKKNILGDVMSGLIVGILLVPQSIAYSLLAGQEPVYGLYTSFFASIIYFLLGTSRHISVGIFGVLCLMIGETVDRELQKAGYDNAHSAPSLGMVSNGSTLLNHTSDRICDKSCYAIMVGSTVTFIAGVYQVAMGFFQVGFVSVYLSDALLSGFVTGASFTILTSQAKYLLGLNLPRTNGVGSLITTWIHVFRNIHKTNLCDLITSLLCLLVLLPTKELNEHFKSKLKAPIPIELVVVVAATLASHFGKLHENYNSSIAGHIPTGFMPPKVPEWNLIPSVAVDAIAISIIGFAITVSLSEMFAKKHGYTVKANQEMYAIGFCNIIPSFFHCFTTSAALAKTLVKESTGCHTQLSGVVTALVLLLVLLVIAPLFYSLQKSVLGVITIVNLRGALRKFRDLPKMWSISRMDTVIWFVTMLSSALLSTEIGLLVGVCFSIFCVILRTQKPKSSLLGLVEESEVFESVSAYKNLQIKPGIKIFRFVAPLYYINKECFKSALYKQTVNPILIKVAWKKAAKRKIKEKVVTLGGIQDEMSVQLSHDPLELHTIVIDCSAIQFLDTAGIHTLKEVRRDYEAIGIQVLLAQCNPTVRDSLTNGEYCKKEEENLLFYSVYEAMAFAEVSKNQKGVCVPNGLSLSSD

DRA = biological target: T5, DRA (Homo sapiens, UniProt P40879); settings: cited from earlier work
T5 sequence (P40879 1-764): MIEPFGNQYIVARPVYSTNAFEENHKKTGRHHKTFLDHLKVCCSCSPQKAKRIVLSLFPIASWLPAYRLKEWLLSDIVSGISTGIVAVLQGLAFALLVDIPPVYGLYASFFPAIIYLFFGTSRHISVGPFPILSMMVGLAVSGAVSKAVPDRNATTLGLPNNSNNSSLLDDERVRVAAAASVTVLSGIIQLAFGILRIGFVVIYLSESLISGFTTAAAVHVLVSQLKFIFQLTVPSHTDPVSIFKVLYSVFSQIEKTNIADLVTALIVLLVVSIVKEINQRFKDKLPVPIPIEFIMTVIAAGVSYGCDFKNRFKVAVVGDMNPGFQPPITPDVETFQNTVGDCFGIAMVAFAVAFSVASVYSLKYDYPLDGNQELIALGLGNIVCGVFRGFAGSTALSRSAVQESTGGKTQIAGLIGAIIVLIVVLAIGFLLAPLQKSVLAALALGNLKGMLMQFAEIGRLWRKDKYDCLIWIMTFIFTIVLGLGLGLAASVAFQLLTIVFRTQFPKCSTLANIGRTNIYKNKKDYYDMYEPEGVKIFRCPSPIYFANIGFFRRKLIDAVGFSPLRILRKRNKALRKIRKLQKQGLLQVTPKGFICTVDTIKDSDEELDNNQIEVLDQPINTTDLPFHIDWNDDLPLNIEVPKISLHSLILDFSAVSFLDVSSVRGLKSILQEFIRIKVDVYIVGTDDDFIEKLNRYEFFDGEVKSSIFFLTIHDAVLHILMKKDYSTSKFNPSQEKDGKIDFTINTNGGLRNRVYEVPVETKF

SAT-1 = biological target: T6, SAT-1 (Rattus norvegicus, UniProt P45380); settings: rat hepatocytes; cited from earlier work
T6 sequence (P45380 1-703): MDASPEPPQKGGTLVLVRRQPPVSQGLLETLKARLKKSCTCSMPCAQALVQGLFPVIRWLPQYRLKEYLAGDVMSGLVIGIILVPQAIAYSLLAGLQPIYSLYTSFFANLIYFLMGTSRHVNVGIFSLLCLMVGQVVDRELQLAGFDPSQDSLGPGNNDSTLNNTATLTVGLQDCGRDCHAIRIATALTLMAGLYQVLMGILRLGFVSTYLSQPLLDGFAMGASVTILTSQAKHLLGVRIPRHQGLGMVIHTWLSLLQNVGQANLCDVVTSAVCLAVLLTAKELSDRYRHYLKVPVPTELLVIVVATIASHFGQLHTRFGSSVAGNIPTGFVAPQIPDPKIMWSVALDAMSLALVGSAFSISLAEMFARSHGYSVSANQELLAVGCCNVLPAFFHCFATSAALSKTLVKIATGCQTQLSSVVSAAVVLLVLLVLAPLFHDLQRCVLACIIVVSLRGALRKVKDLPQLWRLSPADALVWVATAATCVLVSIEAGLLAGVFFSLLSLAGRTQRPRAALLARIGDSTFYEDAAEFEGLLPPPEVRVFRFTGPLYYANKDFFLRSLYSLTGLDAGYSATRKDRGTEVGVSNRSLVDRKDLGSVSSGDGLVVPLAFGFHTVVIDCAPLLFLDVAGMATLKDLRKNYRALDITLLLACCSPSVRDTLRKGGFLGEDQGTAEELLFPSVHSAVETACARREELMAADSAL

selectins = settings: cited from earlier work

Row | Compound | inhibition of SUT-3-mediated sulfate uptake (SUT-3) | sensitivity of SUT-1 sulfate transport to DIDS (SUT-1) | sensitivity of NaSi-1 sulfate transport to DIDS (NaSi-1) | sensitivity of DTD to DIDS (DTD) | sensitivity of DRA to DIDS (DRA) | sensitivity of SAT-1 sulfate transport to DIDS (SAT-1) | endothelial expression of selectins (selectins)
1 | O=S(=O)(O)c1cc(N=C=S)ccc1C=Cc1ccc(N=C=S)cc1S(=O)(=O)O [DIDS, 4,4′-diisothiocyanostilbene-2,2′-disulfonic acid] | sensitive; also recorded: efficiently inhibited | resistant | resistant | sensitive | sensitive | sensitive | –
2 | COc1cc2c(c(OC)c1OC)-c1ccc(OC)c(=O)cc1[C@@H](NC(C)=O)CC2 [colchicine] | – | – | – | – | – | – | downregulate
